Source: patent US10857105B2, “Compounds and compositions for intracellular delivery of therapeutic agents” (ModernaTX, Inc., priority 2017, dated 2020)

What was measured:
[1] = Clinical chemistry and hematology in rat 48 h after intravenous 2 mpk dose; type: in vivo; conditions: 48 h post dose
Protocol: Sample formulations of nanoparticle compositions including different lipids were administered intravenously to rat at a dose of 2 mpk. The expression of various clinical markers was evaluated at 48 h post dose and compared to that induced by administration of MC3 formulations or phosphate buffered saline (PBS).

luciferase (Luc) mRNA [2] = assay: Luciferase expression after intramuscular administration to mice; type: in vivo; conditions: for Novel lipid/MC3 expression ratio, i.m. Luc: 6 hr. time point, relative to MC3 formulation
Summary of the method: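 CD-1 mice received lipid nanoparticle formulations of modified luciferase mRNA intramuscularly at 0.01 mpk. Bioluminescence total flux was measured, including at 6 h, and AUC was expressed relative to MC3 formulations. Immunogenicity was assessed in parallel.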

luciferase (Luc) mRNA [3] = assay: Luciferase expression (whole body bioluminescence) after intravenous administration to mice; type: in vivo; conditions: for Fold increase in Luc expression over MC3 upon intravenous administration: higher doses than the intramuscular data; for Fold increase in Luc expression over MC3 upon intravenous administration / Novel lipid/MC3 expression ratio, i.v. / Total Flux 3 hours / Total Flux 6 hours / Total Flux 24 hours: intravenous; for Novel lipid/MC3 expression ratio, i.v.: luciferase, 6 hr. time point, relative to MC3 formulation; for Total Flux 3 hours / Total Flux 6 hours / Total Flux 24 hours: mice (n=6), 0.5 mg/kg
Summary of the method: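 Mice (n=6) received lipid nanoparticle formulations carrying luciferase mRNA intravenously at 0.5 mg/kg. Whole-body bioluminescence was measured at 3, 6 and 24 h. Total flux was taken as area under the curve and expressed relative to a standard MC3 formulation.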

luciferase (Luc) mRNA [4] = assay: Luciferase expression after subcutaneous administration to mice; type: in vivo, CD-1 mice; conditions: 6 hr. time point, relative to MC3; for Novel lipid/MC3 expression ratio, s.c. Luc (mpk) 0.5: 0.5 mpk
Excerpt: FIGS. 19A and 19B show the results of luciferase expression measured upon subcutaneous administration of various nanoparticle compositions to CD-1 mice at 0.05 mpk. FIG. 19A is a bar graph showing total flux at 6 hr after administration. The numbers above each bar indicate the expression ratio relative to MC3. […] Numbers 1-12 in the Figures refer to compositions containing the following: 1: PBS, 2: MC3, 3: Compound 25; 4: Compound 30; 5: Compound 20; 6: Compound 110; 7: Compound 112; 8: Compound 113; 9: Compound 72; 10: Compound 75; 11: Compound 122, 12: Compound 24.
FIGS. 20A-20C is a series of graphs summarizing luciferase expression levels in (FIG. 20A) spleen (FIG. 20B) liver, and (FIG. 20C) at the injection site, ex vivo, 24 h after administration of nanoparticle compositions containing compounds of the disclosure to CD-1 mice. Total light flux values were acquired via body luminescent imaging (BLI). PBS (phosphate buffered saline) was used as a control. Numbers 1-12 in the Figures refer to compositions containing the following: 1: PBS, 2: MC3, 3: Compound 25; 4: Compound 30; 5: Compound 20; 6: Compound 110; 7: Compound 112; 8: Compound 113; 9: Compound 72; 10: Compound 75; 11: Compound 122, 12: Compound 24.
FIGS. 22A-22C are a series of graphs summarizing luciferase expression levels at (FIG. 22A) 3 h, (FIG. 22B) 6 h, and (FIG. 22C) 24 h after subcutaneous administration of nanoparticle compositions containing compounds of the disclosure to mice. Total light flux values were acquired via body luminescent imaging (BLI). PBS (phosphate buffered saline) was used as a control. Numbers 1-12 in the Figures refer to compositions containing the following: 1: PBS, 2: MC3, 3: Compound 168; 4: Compound 23; 5: Compound 19; 6: Compound 108; 7: Compound 109; 8: Compound 111; 9: Compound 60; 10: Compound 61; 11: Compound 69, 12: Compound 128.

[5] = Chemical stability of lipids in ethanol at room temperature and 37° C. (lipid purity); type: physicochemical
Protocol: Ester linkages were previously reported to trigger metabolism by esterases in vivo. (See Fukami, T. et al. Drug Metab. Pharmacokinet. 2012, 27, 466-477, the content of which is incorporated by reference herein in its entirety). […] (See Maier M. A., Mol. Ther. 2013, 21, 1570-1578, the content of which is incorporated herein in its entirety) First, the chemical stability of the lipids was evaluated by measuring ethanol stability at room temperature and 37° C. (Table 39). […] LNPs formed with compound 138 were larger, with a surface pKa>7. […] Removal of one ester function (compound 136) afforded LNPs with improved physiochemical characteristics and lower LNP surface pKa.

[6] = luciferase, intramuscular administration (Table 3H)
[7] = intravenous administration (Table 3D)

Concentration, Alanine aminotransferase [1] | Concentration, Aspartate aminotransferase [1] | Concentration, Lymphocytes [1] | Concentration, Monocytes [1] | Concentration, Neutrophils [1] | Compound | Novel lipid/MC3 expression ratio, i.m. Luc (luciferase (Luc) mRNA [2]; intramuscular, luciferase) | Lipid Purity, t = 96 h, 25° C. [5] | Lipid Purity, t = 96 h, 37° C. [5] | Lipid Purity, t = 0 [5] | further results
53.5 | 87.5 | 12051 | 2103 | 3388.5 | CCCCCCCCCN(CCO)CCCCCCCC(=O)OC(CCCCCCCC)CCCCCCCC [Compound 3, Heptadecan-9-yl 8-((2-hydroxyethyl)(nonyl)amino)octanoate] |  |  |  |  | 
 |  |  |  |  | CCCCCCCCCOC(=O)CCCCCCCN(CCO)CCCCCCCC(=O)OC(CCCCCCCC)CCCCCCCC [Compound 18, Heptadecan-9-yl 8-((2-hydroxyethyl)(8-(nonyloxy)-8-oxooctyl)amino)octanoate] | 2.01 | 94.71% | 95.01% | 94.37% | Fold increase in Luc expression over MC3 upon intravenous administration (luciferase (Luc) mRNA [3]): highest fold increase; Novel lipid/MC3 expression ratio, s.c. Luc (mpk) 0.5 (luciferase (Luc) mRNA [4]): 1.88
51.5 | 90 | 14100 | 1834 | 1790.5 | CCCCCC/C=C\COC(=O)CCCCCCCN(CCO)CCCCCCCC(=O)OC(CCCCCCCC)CCCCCCCC [Compound 24, Heptadecan-9-yl (Z)-8-((2-hydroxyethyl) (8-(non-2-en-1-yloxy)-8-oxooctyl)amino)octanoate] | 1.10 |  |  |  | Novel lipid/MC3 ratio, i.m. Luc (luciferase (Luc) mRNA [2]; Table 3G, intramuscular, luciferase, 6 hr. timepoint, relative to MC3): 1.10
52 | 124.5 | 15924 | 2122 | 1998 | CCCCCCCCCCCOC(=O)CCCCCN(CCO)CCCCCCCC(=O)OC(CCCCCCCC)CCCCCCCC [Compound 25, Heptadecan-9-yl 8-((2-hydroxyethyl)(6-oxo-6-(undecyloxy)hexyl)amino)octanoate] |  | 96.23% | 96.13% | 95.58% | 
 |  |  |  |  | CCCCCCCCCOC(=O)CCCN(CCO)CCCCCCCC(=O)OC(CCCCCCCC)CCCCCCCC [Compound 26, Heptadecan-9-yl 8-((2-hydroxyethyl)(4-(nonyloxy)-4-oxobutyl)amino) octanoate] |  | 97.38% | 95.72% | 98.64% | Fold increase in Luc expression over MC3 upon intravenous administration (luciferase (Luc) mRNA [3]): highest fold increase
56 | 95 | 10408.5 | 877 | 3195 | CCCCCCCCCOC(=O)CCCCCCCN(CCO)CCCCCCCOC(=O)C(CCCCCCCC)CCCCCCCC [Compound 30, 7-((2-Hydroxyethyl)(8-(nonyloxy)-8-oxooctyl)amino)heptyl 2-octyldecanoate] |  |  |  |  | 
 |  |  |  |  | CCCCCCCCC(C)OC(=O)CCCCCCCN(CCO)CCCCCCCC(=O)OC(CCCCCCCC)CCCCCCCC (centres unmarked) [Compound 48, decan-2-yl 8-((8-(heptadecan-9-yloxy)-8-oxooctyl)(2-hydroxyethyl)amino)octanoate] | 0.31 |  |  |  | Novel lipid/MC3 expression ratio, i.v. (luciferase (Luc) mRNA [3]): 10.0
 |  |  |  |  | Nonyl 8-((6-(heptadecan-9-yloxy)-6-oxohexyl)(2-hydroxyethyl)amino) octanoate [Compound 27] | 3.94 |  |  |  | Fold increase in total body Luc Flux relative to MC3 at 6 h (luciferase (Luc) mRNA [3]; i.v. administration, 6 h): 0.31; Novel lipid/MC3 expression ratio, i.v. (luciferase (Luc) mRNA [3]): 0.31; Total Flux 3 hours (luciferase (Luc) mRNA [3]): 1.64E+10; Total Flux 6 hours (luciferase (Luc) mRNA [3]): 1.03E+10; Total Flux 24 hours (luciferase (Luc) mRNA [3]): 1.94E+09; Novel lipid/MC3 expression ratio, s.c. Luc (mpk) 0.05 (luciferase (Luc) mRNA [4]; 0.05 mpk): 14.45; Novel lipid/MC3 expression ratio, s.c. Luc (mpk) 0.5 (luciferase (Luc) mRNA [4]): 4.87

Compound | Concentration, Alanine aminotransferase [1] | Concentration, Aspartate aminotransferase [1] | Concentration, Lymphocytes [1] | Concentration, Monocytes [1] | Concentration, Neutrophils [1] | Novel lipid/MC3 expression ratio, i.m. Luc (luciferase (Luc) mRNA [2]; intramuscular, luciferase) | Lipid Purity, t = 96 h, 25° C. [5] | Lipid Purity, t = 96 h, 37° C. [5] | Lipid Purity, t = 0 [5] | further results
CCCCCC=CCC=CCCCCCCCCC(CCCCCCCCC=CCC=CCCCCC)OC(=O)CCCN(C)C (centres unmarked) [MC3, heptatriaconta-6,9,28,31-tetraen-19-yl 4-(dimethylamino)butanoate, reference compound] | 339 | 325 | 19976 | 1429 | 4962.5 |  |  |  |  | Total flux 6 hours after intramuscular administration, 0.01 mpk Dose (luciferase (Luc) mRNA [2]; Luc mRNA, intramuscular, 0.01 mpk, 6 hours): 3.23E+07 p/s; AUC (luciferase (Luc) mRNA [2]; [6]): 5.88E+08 p/s*h; Lipid/MC3 AUC (luciferase (Luc) mRNA [2]; [6]): 1; Lipid/MC3 Luc expression (luciferase (Luc) mRNA [3]; 0.5 mpk dose to mouse, 6 hours after administration): 1; Average total flux (6 h, ffluc) (luciferase (Luc) mRNA [3]; 6 h, ffluc): 6.59 × 10^9; Fold increase in average total flux relative to MC3 (luciferase (Luc) mRNA [3]; 6 h, ffluc): 1; AUC (luciferase (Luc) mRNA [3]; i.v. administration (Table 3C)): 8.24E+10 h*p/s; Fold increase AUC Lipid/MC3 (luciferase (Luc) mRNA [3]; i.v. administration (Table 3C)): 1; Fold increase in total body Luc Flux relative to MC3 at 6 h (luciferase (Luc) mRNA [3]; i.v. administration, 6 h): 1.00; 6 h Lipid/MC3 Avg. Luc Expression (luciferase (Luc) mRNA [3]; i.v. administration, 6 h (Table 3C)): 1; AUC (luciferase (Luc) mRNA [3]; [7]): 1.909E+011 p/s*h; Lipid/MC3 AUC (luciferase (Luc) mRNA [3]; [7]): 1; Total Flux 3 hours (luciferase (Luc) mRNA [3]): 1.58E+10; Total Flux 6 hours (luciferase (Luc) mRNA [3]): 2.12E+10; Total Flux 24 hours (luciferase (Luc) mRNA [3]): 7.19E+08
